Assay results taken from ChEMBL document CHEMBL5150014, “Discovery and Development of Dolastatin 10-Derived Antibody Drug Conjugate Anticancer Drugs” (J Nat Prod, 2022).
Starred links: 1 amine or outer side, 2 acyl side, 3 side chain; linkers in the order of their positions; H or OH if unused. Non-standard residues stand in square brackets, D forms with d. Residues, ends and D or L forms follow the SMILES beside them. *: point of attachment. X2 = CO[C@H]([C@@H](C)C(=O)[*:2])[C@@H]1C[C@@H]2C[C@@H]2N1[*:1]; Dolaproine = CO[C@@H]([C@@H]1CCCN1)[C@@H](C)C(=O)O; Abu(3S-N3) = C[C@H](N=[N+]=[N-])[C@H](N)C(=O)O; X6 = C/C(=N\OCC(=O)*)c1ccc(C[C@H](N)C(=O)O)cc1; Dil = CC[C@H](C)[C@H](NC)[C@@H](CC(=O)O)OC; X5 = CCCCCCCCCCN(C)[C@H](C(=O)*)C(C)C; Phe(2-F) = N[C@@H](Cc1ccccc1F)C(=O)O; NMeV = CN[C@H](C(=O)O)C(C)C

What was measured:
Tubulin [1] = assay: Binding affinity to tubulin (unknown origin); format: protein-complex assay, Homo sapiens
[2] = test system: Panel NCI-60 (60 carcinoma cell lines); assay: Cytotoxicity against human Panel NCI-60 (60 carcinoma cell lines) assessed as cell growth inhibition; format: functional, cell-based
HeLa = assay: Cytotoxicity against human HeLa cells assessed as cell growth inhibition; format: functional
SK-OV-3 = assay: Cytotoxicity against human SK-OV-3 cells assessed as reduction in cell viability incubated for 96 hrs by PrestoBlue cell viability assay; format: functional, cell-based; settings: SK-OV-3, 96 h
HeLa S3 = assay: Cytotoxicity against human HeLa S3 cells assessed as reduction in cell viability incubated for 4 days by propidium iodide staining based fluorescence analysis; format: functional; settings: HeLa S3, 96 h
HT-29 [3] = assay: Anticancer activity against human HT-29 assessed as reduction in cell viability incubated for 96 hrs by microculture tetrazolium assay; format: functional, cell-based; settings: HT-29, 96 h
ASPC1 = assay: Cytotoxicity against human ASPC1 cells assessed as cell growth inhibition incubated for 72 hrs by CellTiter-Glo assay; format: functional
SK-BR-3 = assay: Cytotoxicity against human SK-BR-3 cells assessed as cell growth inhibition incubated for 72 hrs by CellTiter-Glo assay; format: functional
H3396 = assay: Cytotoxicity against human H3396 cells assessed as cell growth inhibition; format: functional, cell-based
HL-60 = assay: Cytotoxicity against P-gp negative human HL-60 cells assessed as reduction inc cell viability; format: functional, cell-based
HCT-116 = assay: Cytotoxicity against human HCT-116 cells assessed as reduction inc cell viability; format: functional, cell-based
HT-29 [4] = assay: Cytotoxicity against human HT-29 cells assessed as cell growth inhibition; format: functional, cell-based
[5] = Toxicity in mouse assessed as maximum tolerated dose; settings: in vivo
KARPAS-299 = assay: Cytotoxicity against human KARPAS-299 cells assessed as reduction in cell viability incubated for 5 days by Presto blue dye based assay; format: functional; settings: KARPAS-299, 120 h
KM-20L2 = assay: Anticancer activity against human KM-20L2 cells assessed as growth inhibition; format: functional
OVCAR-3 = assay: Anticancer activity against human OVCAR-3 cells assessed as growth inhibition; format: functional
NCI-H69 = assay: Anticancer activity against human NCI-H69 cells assessed as cell growth inhibition; format: functional, cell-based
L1210 = assay: Cytotoxicity against mouse L1210 cells assessed as cell growth inhibition measured after 24 hrs; format: functional, cell-based; settings: L1210, 24 h
Tubulin [6] = assay: Inhibition of tubulin (unknown origin) polymerization assessed as reduction in microtubule formation preincubated for 15 mins followed by GTP addition and measured for 20 mins by spectrophotometric analysis; format: protein-complex assay, Homo sapiens
NCI-H82 = assay: Anticancer activity against human NCI-H82 cells assessed as cell growth inhibition; format: functional, cell-based
NCI-H446 [7] = assay: Anticancer activity against human NCI-H446 cells assessed as cell growth inhibition; format: functional, cell-based
NCI-H510A = assay: Anticancer activity against human NCI-H510A cells assessed as cell growth inhibition; format: functional, cell-based
Tubulin [8] = assay: Inhibition of tubulin (unknown origin) polymerization assessed as reduction in microtubule formation measured for 20 mins by spectrophotometric analysis; format: protein-complex assay, Homo sapiens
leukaemia cell line = assay: Cytotoxicity against human leukaemia cell line assessed as cell growth inhibition; format: functional
NCI-H460 = assay: Anticancer activity against human NCI-H460 cells assessed as growth inhibition; format: functional
NCI-H446 [9] = assay: Anti-tumor activity against human NCI-H446 cells xenografted in SCID mouse assessed as increase in median survival time at 450 microg/kg, iv (Rvb= 42 day); format: functional; settings: dose 450 µg/kg
SF-295 = assay: Anticancer activity against human SF-295 cells assessed as growth inhibition; format: functional
SK-MEL-5 = assay: Anticancer activity against human SK-MEL-5 cells assessed as growth inhibition; format: functional
A498 = assay: Anticancer activity against human A498 cells assessed as growth inhibition; format: functional
[10] = Toxicity in dog assessed as maximum tolerated dose; parameters: species or system Canis lupus familiaris; settings: in vivo
NCI-H446 [11] = assay: Anti-tumor activity against human NCI-H446 cells xenografted in SCID mouse assessed as log increase in apoptosis at 450 microg/kg, iv measured after 96 hrs; format: functional; settings: dose 450 µg/kg

CC[C@H](C)[C@@H]([C@@H](CC(=O)N1CCC[C@H]1[C@H](OC)[C@@H](C)C(=O)NCCc1ccccn1)OC)N(C)C(=O)[C@@H](NC(=O)[C@H](C(C)C)N(C)C)C(C)C
IC50 (Tubulin [1]): 1.2 nM
GI50 [2]: 0.85 nM

CC[C@H](C)[C@@H]([C@@H](CC(=O)NC[C@H]1O[C@H](C(=O)N[C@@H](Cc2ccccc2)c2nccs2)[C@@H](OC)[C@@H]1OC)OC)N(C)C(=O)[C@@H](NC(=O)[C@H](C(C)C)N(C)C)C(C)C
GI50 (HeLa): 0.01 nM

CC[C@H](C)[C@@H]([C@@H](CC(=O)N1CCC[C@H]1[C@H](OC)[C@@H](C)C(=O)N[C@@H](Cc1ccccc1)c1nccs1)OC)N(C)C(=O)[C@@H](NC(=O)[C@H](C(C)C)N(C)CC(O)C(O)C(O)C(O)CN=[N+]=[N-])C(C)C (stereo partly specified)
IC50 (SK-OV-3): < 1 nM

CC[C@H](C)[C@@H]([C@@H](CC(=O)N1CCC[C@H]1[C@H](OC)[C@@H](C)C(=O)OC[C@@H](O)Cc1ccccc1)OC)N(C)C(=O)[C@@H](NC(=O)[C@H](C(C)C)N(C)C)[C@@H](C)CC
IC50 (HeLa S3): 2.9 nM

C#COCC(O)C(O)C(O)C(O)CN(C)[C@H](C(=O)N[C@H](C(=O)N(C)[C@@H]([C@@H](C)CC)[C@@H](CC(=O)N1CCC[C@H]1[C@H](OC)[C@@H](C)C(=O)N[C@@H](Cc1ccccc1)c1nccs1)OC)C(C)C)C(C)C (stereo partly specified)
IC50 (SK-OV-3): 1 nM

CC[C@H](C)[C@@H]([C@@H](CC(=O)N1CCC[C@H]1[C@H](OC)[C@@H](C)C(=O)O[C@H](CO)Cc1ccccc1)OC)N(C)C(=O)[C@@H](NC(=O)[C@H](C(C)C)N(C)C)[C@@H](C)CC
IC50 (HeLa S3): 2.1 nM

CC[C@H](C)[C@H]1[C@H](OC)CC(=O)N2CCC[C@H]2[C@H](OC)[C@@H](C)C(=O)N[C@@H](Cc2ccccc2)c2nc(cs2)C(=O)O[C@H](C)[C@H](N(C)C)C(=O)N[C@@H](C(C)C)C(=O)N1C
IC50 (HT-29 [3]): 58.5 nM

CC[C@H](C)[C@@H]([C@@H](CC(=O)N1[C@H]2C[C@H]2C[C@H]1[C@H](OC)[C@@H](C)C(=O)N[C@@H](Cc1ccccc1F)C(=O)O)OC)N(C)C(=O)[C@@H](NC(=O)[C@@H](NC)C(C)C)C(C)C (H-[NMeV]V[Dil][X2][Phe(2-F)]-OH)
GI50 (ASPC1): 1750 nM
GI50 (SK-BR-3): 47.7 nM

CC[C@H](C)[C@@H]([C@@H](CC(=O)N1CCC[C@H]1[C@H](OC)[C@@H](C)C(=O)N[C@@H](Cc1ccccc1)C(=O)O)OC)N(C)C(=O)[C@@H](NC(=O)[C@@H](NC)C(C)C)C(C)C (HELM PEPTIDE1{[meV].V.[CC[C@H](C)[C@@H]([C@@H](CC(=O)[*:2])OC)N(C)[*:1]].[CO[C@H]([C@@H](C)C(=O)[*:2])[C@@H]1CCCN1[*:1]].F}$$$$V2.0)
IC50 (H3396): 105 nM
IC50 (HL-60): 137 nM
IC50 (HCT-116): 2880 nM
IC50 (HT-29 [4]): 10 nM
MTD [5]: 1 mg/kg

CCCCCCCCCCN(C)[C@H](C(=O)N[C@H](C(=O)N(C)[C@@H]([C@@H](C)CC)[C@@H](CC(=O)N1CCC[C@H]1[C@H](OC)[C@@H](C)C(=O)N[C@@H](Cc1ccccc1)C(=O)O)OC)C(C)C)C(C)C (X5-V[Dil][Dolaproine]F-OH)
IC50 (HL-60): 1.8 nM

CC[C@H](C)[C@@H]([C@@H](CC(=O)N1CCC[C@H]1[C@H](OC)[C@@H](C)C(=O)N[C@@H](Cc1ccccc1)C(=O)O)OC)N(C)C(=O)[C@@H](NC(=O)[C@H](C(C)C)N(C)C(=O)CO/N=C(\C)c1ccc(C[C@H](N)C(=O)O)cc1)[C@H](C)N=[N+]=[N-] (X6-[NMeV][Abu(3S-N3)][Dil][Dolaproine]F-OH)
IC50 (KARPAS-299): 217 nM

CC[C@H](C)[C@@H]([C@@H](CC(=O)N1CCC[C@H]1[C@H](OC)[C@@H](C)C(=O)N[C@@H](Cc1ccccc1)c1nccs1)OC)N(C)C(=O)[C@@H](NC(=O)[C@H](C(C)C)N(C)C)C(C)C [DOLASTATIN-10]
GI50 (KM-20L2): 0.006 nM
GI50 (OVCAR-3): 0.001 nM
IC50 (NCI-H69): 0.032 nM
IC50 (L1210): 0.9 nM
IC50 (Tubulin [6]): 3 nM
IC50 (NCI-H82): 0.032 nM
IC50 (NCI-H446 [7]): 0.032 nM
IC50 (NCI-H510A): 0.032 nM
IC50 (Tubulin [8]): 1200 nM
ED50 (leukaemia cell line): 4.6 10^-5 ug/ml
GI50 (NCI-H460): 0.004 nM
MTD [5]: 0.036 mg/kg
GI50 [2]: 0.01 nM
MST (NCI-H446 [9]): 91 days
GI50 (SF-295): 0.01 nM
GI50 (SK-MEL-5): 0.009 nM
GI50 (A498): 0.033 nM
MTD [10]: 0.02 mg/kg
Activity (NCI-H446 [11]): 5.2
